Data reported in patent publication US5298488A, “CM-chitin derivatives and use thereof” (Fuji Photo Film Co., Ltd., priority 1990, dated 1994).
No end group written: not given here. succinylated CM‑chitin = succinylated carboxymethyl-chitin (CM-chitin), conjugated to the peptide; sulfated CM‑chitin = sulfated carboxymethyl-chitin (CM-chitin), conjugated to the peptide; sulfated succinylated CM‑chitin = sulfated succinylated CM-chitin; succinylated CM‑Chitin = succinylated CM-chitin

Assays:
vitronectin = experiment: Cell adhesion-inhibitory test against vitronectin (competitive assay, number of adhered cells); assay type: cell-based, human; details: endothelium cells of blood vessel, 37° C., one hour, 0 control 249
Text: (§1) A method for determining the activity of the CM-chitin derivatives of the present invention for inhibiting adhesion of cells to fibronectin or vitronectin will be described below. The competitive assays used herein have widely been employed tin the field of biochemistry and are detailed in, for instance, "Method in Enzymology", 1981, 82, pp. 803-831; and J. P. KOKAI Nos. Hei 1-309682 and Hei 2-174797.
(§2) Commercially available fibroneotin (derived from human; purchased from Seikaqaku Kogyo K. K.) and vitronectin (derived from human; purchased from Funakoshi Co., Ltd.) each was diluted to 1.0 μ1/ml and 2.0 μ1/ml with PBS (NaH2 PO4 0.005 M+NaCl 0.07 M), 0.5 ml of the resulting diluted solution was dispensed into a plastic plate having 24 wells and incubated at 37° C. overnight to perform coating of the plate. Then bovine serum albumin (BSA 1%) was added followed by incubation at 37° C. for one hour for inhibiting the occurrence of nonspecific adsorption, then washing with PBS in the usual manner and sufficient drainage to give an adsorption plate.
[…] Each of the solutions (0.25 ml) was dispensed to the plate prepared above, 0.25 ml of a suspension of endothelium cells of blood vessel (4×10^6 cells/ml) was added to the plate and incubated at 37° C. for one hour to thus cause cohesion of the cells. The plate was washed three times with DMEM medium to remove non-adhesive cells, then the adhered cells were peeled off with a 0.025% EDTA trypsin solution and stained with a 2% Trypan Blue solution to determine the number of the adhered cells.

fibronectin = experiment: Cell adhesion-inhibitory test against fibronectin (competitive assay, number of adhered cells); assay type: cell-based, human; details: endothelium cells of blood vessel, 37° C., one hour, 0 mg/ml control 160
Text: as §1, §2
A CM-chitin derivative obtained through lyophilization was diluted with Dulbecco's Modified Eagles Medium (hereunder referred to as "DMEM") to give solutions of the CM-chitin derivative having concentrations of 0, 0.25, 0.5, 1.0 and 1.5 mg/ml respectively. Each of the solutions (0.25 ml) was dispensed to the plate prepared above, 0.25 ml of a suspension of endothelium cells of blood vessel (4×10^6 cells/ml) was added to the plate and incubated at 37° C. for one hour to thus cause cohesion of the cells. The plate was washed three times with DMEM medium to remove non-adhesive cells, then the adhered cells were peeled off with a 0.025% EDTA trypsin solution and stained with a 2% Trypan Blue solution to determine the number of the adhered cells.

[1] = system: human plasma rich in platelet; experiment: Platelet coagulation-inhibitory activity in vitro, transmittance by aggregometer; assay type: cell-based; details: 37° C., 3 minutes preincubation; for Platelet Coagulation-Inhibitory Action IC50, ADP Stimulation: ADP stimulation (50 μM ADP solution); for Platelet Coagulation-Inhibitory Action IC50, Collagen Stimulation: collagen stimulation (200 μg/ml collagen solution)
Procedure: The platelet coagulation-inhibitory effect of the CM-chitin derivative of the present invention was assayed, in vitro, using human plasma rich in platelet. The experimental method will be described below.
To fresh human blood, there was added 1/9 volume of a 3.8% sodium citrate solution, the resulting mixture was centrifuged (1000 rpm; for 10 minutes) and the upper layer was separated as a plasma rich in platelet. A lyophilized CM-chitin derivative was dissolved in physiological saline to give a plurality of solutions having various concentrations ranging from 0 to 1.5 mg/ml. Each of the solutions (25 μ1) was added to 200 µl of the plasma, incubated at 37° C. for 3 minutes, then a 50 μM of ADP (adenosine diphosphate) solution or a 200 μg/ml collagen solution was added to determine the extent of coagulation in terms of transmittance determined by an aggregometer.
Rate of Coagulation Inhibition=(1-T/T .)×100%
T . : transmittance observed when a salt of CM-chitin derivative was not added.
T : transmittance observed when a salt of CM-chitin derivative was added.

[2] = concentration 10 mg/ml (so in the source)
[3] = concentration 50 mg/ml (so in the source)
[4] = concentration 100 mg/ml (so in the source)
[5] = concentration 300 mg/ml (so in the source)

| Substance | Platelet Coagulation-Inhibitory Action IC50, ADP Stimulation [1] | Platelet Coagulation-Inhibitory Action IC50, Collagen Stimulation [1] | Cell Adhesion-Inhibitory effect Against Vitronectin (number of adhered cells) (vitronectin; [2]) | Cell Adhesion-Inhibitory effect Against Vitronectin (number of adhered cells) (vitronectin; [3]) | Cell Adhesion-Inhibitory effect Against Vitronectin (number of adhered cells) (vitronectin; [4]) | Cell Adhesion-Inhibitory effect Against Vitronectin (number of adhered cells) (vitronectin; [5]) | Cell Adhesion-Inhibitory effect Against Fibronectin (number of adhered cells) (fibronectin; concentration 0.5 mg/ml) | Cell Adhesion-Inhibitory effect Against Fibronectin (number of adhered cells) (fibronectin; concentration 1.0 mg/ml) | Cell Adhesion-Inhibitory effect Against Fibronectin (number of adhered cells) (fibronectin; concentration 1.5 mg/ml) | Cell Adhesion-Inhibitory effect Against Fibronectin (number of adhered cells) (fibronectin; concentration .25 mg/ml) |
| --- | --- | --- | --- | --- | --- | --- | --- | --- | --- | --- |
| Succinylated CM-Chitin Gly-Arg-Gly-Asp-Ser (GRGDS; also: conjugated to succinylated CM-chitin) [CM--chitin derivative-8] | 24 µg/mL | 14 µg/mL | 130 cell/well | 95 cell/well | 69 cell/well | 47 cell/well | 113 cell/well | 80 cell/well | 59 cell/well | 130 cell/well |
| Succinylated CM-Chitin-(Arg-Gly-Asp)3 ({succinylated CM‑Chitin}-RGDRGDRGD) [CM--chitin derivative-11] | 21 µg/mL | 12 µg/mL | 147 cell/well | 100 cell/well | 73 cell/well | 45 cell/well | 125 cell/well | 78 cell/well | 70 cell/well | 143 cell/well |
| Succinylated CM-Chitin-(Arg-Gly-Asp)5 ({succinylated CM‑Chitin}-RGDRGDRGDRGDRGD) [CM--chitin derivative-12] | 30 µg/mL | 8 µg/mL | 150 cell/well | 101 cell/well | 80 cell/well | 59 cell/well | 101 cell/well | 89 cell/well | 77 cell/well | 125 cell/well |
| Succinylated CM-Chitin-Arg-Gly-Asp-Ser ({succinylated CM‑chitin}-RGDS) [CM--chitin derivative-2] | 18 µg/mL | 10 µg/mL | 137 cell/well | 96 cell/well | 78 cell/well | 59 cell/well | 99 cell/well | 82 cell/well | 75 cell/well | 135 cell/well |
| Sulfated CM-Chitin-Arg-Gly-Asp-Ser ({sulfated CM‑chitin}-RGDS) [CM--chitin derivative-13] | 17 µg/mL | 7 µg/mL | 103 cell/well | 70 cell/well | 47 cell/well | 31 cell/well | 77 cell/well | 57 cell/well | 33 cell/well | 97 cell/well |

Continued, in another order:

| Platelet Coagulation-Inhibitory Action IC50, ADP Stimulation [1] | Platelet Coagulation-Inhibitory Action IC50, Collagen Stimulation [1] | Substance | Cell Adhesion-Inhibitory effect Against Vitronectin (number of adhered cells) (vitronectin; [2]) | Cell Adhesion-Inhibitory effect Against Vitronectin (number of adhered cells) (vitronectin; [3]) | Cell Adhesion-Inhibitory effect Against Vitronectin (number of adhered cells) (vitronectin; [4]) | Cell Adhesion-Inhibitory effect Against Vitronectin (number of adhered cells) (vitronectin; [5]) | Cell Adhesion-Inhibitory effect Against Fibronectin (number of adhered cells) (fibronectin; concentration 0.5 mg/ml) | Cell Adhesion-Inhibitory effect Against Fibronectin (number of adhered cells) (fibronectin; concentration 1.0 mg/ml) | Cell Adhesion-Inhibitory effect Against Fibronectin (number of adhered cells) (fibronectin; concentration 1.5 mg/ml) | Cell Adhesion-Inhibitory effect Against Fibronectin (number of adhered cells) (fibronectin; concentration .25 mg/ml) |
| --- | --- | --- | --- | --- | --- | --- | --- | --- | --- | --- |
| 28 µg/mL | 9 µg/mL | Succinylated CM-Chitin Arg-Gly-Asp [CM--chitin derivative-9] | 139 cell/well | 88 cell/well | 77 cell/well | 58 cell/well | 97 cell/well | 85 cell/well | 65 cell/well | 121 cell/well |
| 20 µg/mL | 13 µg/mL | Succinylated CM-Chitin-(Arg-Gly-Asp)2 ({succinylated CM‑Chitin}-RGDRGD) [CM--chitin derivative-10] | 136 cell/well | 86 cell/well | 71 cell/well | 43 cell/well | 110 cell/well | 87 cell/well | 73 cell/well | 122 cell/well |
| 12 µg/mL | 3 µg/mL | Sulfated CM-Chitin-Gly-Arg-Gly-Asp-Ser ({sulfated CM‑chitin}-GRGDS) [CM--chitin derivative-14] | 107 cell/well | 78 cell/well | 43 cell/well | 34 cell/well | 93 cell/well | 68 cell/well | 41 cell/well | 111 cell/well |
| 15 µg/mL | 6 µg/mL | Sulfated Succinylated CM-Chitin-Arg-Gly-Asp-Ser ({sulfated succinylated CM‑chitin}-RGDS) [CM--chitin derivative-15] | 115 cell/well | 69 cell/well | 54 cell/well | 38 cell/well | 89 cell/well | 65 cell/well | 37 cell/well | 105 cell/well |
